Source: publication PMC8670521, “Identification and characterization of an atypical Gαs-biased β2AR agonist that fails to evoke airway smooth muscle cell tachyphylaxis” (Proceedings of the National Academy of Sciences of the …, 2021)
Where two headings read alike, the source gives them in different places.

Legend:
[1] = molecular target: T1, human β2AR (β2-adrenergic receptor) (Homo sapiens, UniProt P07550); experiment: cAMP accumulation, competitive immunoassay; type: cell-based
T1 construct: gene ADRB2; full-length receptor cDNA stably expressed in CHW-1102 (CHW-β2) cells, ~2,000 fmol/mg
T1 sequence (P07550 whole entry): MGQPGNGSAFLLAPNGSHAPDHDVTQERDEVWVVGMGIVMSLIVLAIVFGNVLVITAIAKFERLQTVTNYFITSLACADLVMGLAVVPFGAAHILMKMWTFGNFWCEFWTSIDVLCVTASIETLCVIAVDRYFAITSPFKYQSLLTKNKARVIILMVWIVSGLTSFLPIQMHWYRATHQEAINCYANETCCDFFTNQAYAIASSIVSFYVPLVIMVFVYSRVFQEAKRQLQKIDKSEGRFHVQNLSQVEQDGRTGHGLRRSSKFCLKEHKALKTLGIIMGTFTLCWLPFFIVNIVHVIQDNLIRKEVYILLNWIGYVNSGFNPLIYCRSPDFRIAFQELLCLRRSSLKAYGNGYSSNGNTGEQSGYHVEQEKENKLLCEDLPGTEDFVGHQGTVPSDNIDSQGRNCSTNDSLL
Text: cAMP accumulation, competitive immunoassay on human β2AR (β2-adrenergic receptor)

[2] = molecular target: T2, β2AR tagged at its carboxyl terminus (PathHunter ECA) (Homo sapiens, UniProt P07550); experiment: β-arrestin2 recruitment, PathHunter enzyme complementation; type: cell-based; conditions: […] min, […] °C, CHO cells
T2 construct: gene ADRB2; C-terminal complementary β-galactosidase fragment tag; DiscoverX PathHunter CHO cells co-expressing β-arrestin2 fused to fragment-deficient β-galactosidase (read-out)
T2 sequence (P07550 whole entry, the tested form may be a part): as the sequence (P07550 whole entry) above

[3] = agonist, […] min, […] °C, IBMX […], whole CHW-β[…] cells

EC50 [1] | EC50 [1, 3] | SMILES | β-arrestin2 recruitment, PathHunter enzyme complementation [2]
4.23 ± 1 µM | – | COc1ccc(CC2=N[C@@H](CCCCN3C[C@H](Cc4ccc(O)cc4)N(CCCCC4CCCCC4)C3=O)CN2)cc1 [C1-S] | lack of a response to C1-S in the β-arrestin ECA
– | 6.67 ± 2.01 µM | COc1ccc(CC2=N[C@@H](CCCCN3C[C@H](Cc4ccc(O)cc4)N(CCCCC4CCCCC4)C3=O)CN2)cc1OC [C2-S] | –
– | 4.31 ± 1.69 µM | CCOc1ccc(CC2=N[C@@H](CCCCN3C[C@H](Cc4ccc(O)cc4)N(CCCCC4CCCCC4)C3=O)CN2)cc1 [C3-S] | –

SMILES | EC50 [1] | EC50 [1, 3] | β-arrestin2 recruitment, PathHunter enzyme complementation [2]
CC(C)CC1=N[C@@H](CCCCN2C[C@H](Cc3ccc(O)cc3)N(CCCCC3CCCCC3)C2=O)CN1 [C4-S] | – | 3.52 ± 0.52 µM | –
